Reference: the METLIN SMRT retention time set (Domingo-Almenara et al. 2019)

Test: gradient 5% acetonitrile 3 min, to 50% in 2 min, to 85% in 15 min, held 3 min, 100 µL/min
Conditions: column: Zorbax Extend-C18 2.1 x 50 mm; eluents: water / acetonitrile, 0.1% formic acid
Outline: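 Each retention time is based on an adduct peak selected computationally and verified by manual inspection. Measurements used HPLC–quadrupole time-of-flight mass spectrometry in positive and negative ionization mode on mixtures of ~100 pure standards. Chromatography ran on a Zorbax Extend-C18 column (2.1 × 50 mm, 1.8 μm) at 100 μL/min with water and acetonitrile, each containing 0.1% formic acid, and dead and dwell volumes of 40 μL and 900 μL.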

Structure (SMILES) | RP-LC retention time
CC1CCN(S(=O)(=O)c2ccc3c(c2)CCCC(=O)N3CC(=O)NCc2ccc(F)cc2)CC1 | 926 s
CCOc1ccc(C2C(=O)N(C3CCCCCC3)CC(=O)N2Cc2ccco2)cc1OC (centres undefined) | 963 s
CCCCC(=O)Nc1ccc(-c2nc(-c3cc(C)ccc3C)co2)cc1 | 1280 s
O=C(c1ccccc1)N1CCN(C(=O)c2nnn3c2COC(c2ccc(Cl)cc2)C3)CC1 (centres undefined) | 873 s
CN1CCC[C@@H]1Cc1c[nH]c2ccc(CCS(=O)(=O)c3ccccc3)cc12 | 604 s
Cc1ccc(CC(=O)N2CCC3(CC2)NC(=O)c2cc(F)ccc2N3C)cc1 | 804 s
O=C1Nc2ccccc2NC12CCOCC2 | 631 s
Cc1ccc(N2CCC(NC(=O)Nc3cccc(C)c3C)C2=O)cc1 (centres undefined) | 945 s
O=C(Nc1ccc(F)cc1)C1CCCN(c2ccc3cc(S(=O)(=O)N4CCCCC4)ccc3n2)C1 (centres undefined) | 883 s
CCCCN1C(=O)C(CC(=O)NC2CCCC2)Sc2ncccc21 (centres undefined) | 808 s
COc1ccc(-n2c(=O)c(C(=O)NCc3ccc(F)cc3F)c(O)c3cccnc32)cc1 | 1170 s
Cc1ccc(-n2cc3c(N4CCCC(C(=O)NCc5ccc(OC(C)C)cc5)C4)ncnc3n2)cc1 (centres undefined) | 765 s
Cc1ccc(-c2nc(-c3ccc4nnc(C)n4c3)no2)cc1 | 968 s
CCc1nc2cc(-c3noc(Cc4ccc(OC)cc4)n3)ccc2o1 | 1030 s
CCn1c(C2CCN(C(=O)c3ccoc3)C2)nc2cccnc21 (centres undefined) | 604 s
CCc1cc(=O)n(CC(=O)Nc2ccc(OC)cc2)c(N)n1 | 595 s
CCc1cc(=O)n(CC(=O)Nc2ccc(C(C)C)cc2)c(N2CCOCC2)n1 | 895 s
CC(=O)N1CCc2cc(C)c(S(=O)(=O)NCc3ccco3)cc21 | 742 s
CC(C)NC(=O)c1c(OCC2CC2)cc(=O)n2c1CCCCC2 | 673 s
Cc1c(CNCc2ccco2)c(C(=O)O)c(C)n1Cc1cccc(F)c1 | 684 s
COc1ccc(NC(=O)c2c(F)cccc2F)c([N+](=O)[O-])c1 | 831 s
CCN1CCN(c2nc(F)c(F)c(S(=O)(=O)CCNc3ccccc3)c2F)CC1 | 689 s
CCc1cccc(C)c1Nc1c(-c2cc(Br)ccc2O)nc2ncccn12 | 1090 s

Structure (SMILES) | RP-LC retention time
COc1ccc(F)cc1S(=O)(=O)N1CCCC(Cn2c(C3CC3)nc3cccnc32)C1 (centres undefined) | 742 s
O=C(Nc1cccc(F)c1)[C@@H]1OCC(=O)N(C2CC2)[C@H]1c1ccccc1 | 849 s
Cc1ccc(C(=O)NCCc2cn(C)c3ncccc23)cc1F | 720 s
O=C(Cn1nc2n(c1=O)CCCC2)Nc1ccc(Br)cc1 | 703 s
CCN1CCN(c2cc(C(=O)O)c3cc(NS(=O)(=O)c4ccc(C(C)C)cc4)ccc3n2)CC1 | 724 s
CCn1c(C(=O)N2CCN(c3cccc(C)c3)C(C)C2)cc2sccc21 (centres undefined) | 1050 s
COCCCNC(=O)N1CCCC1c1nc(-c2cccc(Cl)c2)no1 (centres undefined) | 853 s
Cc1[nH]c(C(=O)N2CCC(CC(=O)NCc3ccco3)CC2)c(C)c1C(=O)OC(C)C | 765 s
Cc1ccc(N2C=C(C(=O)N3CCOCC3)S(=O)(=O)c3ccc(Cl)cc32)cc1Cl | 970 s
CCn1cc(C(=O)Nc2ccc(C)c(F)c2)c2cccnc21 | 920 s
CCOC(=O)c1nnc2c(-c3ccccc3OC)c(C)nn2c1C | 924 s
O=C1CCCC2=C1C(c1ccccc1Cl)C1=C(CCCC1=O)O2 | 812 s
Cc1cc(-c2nnc(-c3ccc(F)cc3)o2)c(C)n1CC(=O)NCc1ccccc1 | 920 s
CN1C(=O)c2cccn2CC1C(=O)N1CCCCC1 (centres undefined) | 614 s
CC(C(=O)N1CCN(Cc2ccccc2)CC1)N1C(=O)CCCc2ccccc21 (centres undefined) | 644 s
Cc1noc(-c2ccnc(-n3cnc(C(=O)NC(C)C)c3)c2)n1 | 712 s
CCN1C(=O)c2cccnc2Sc2cc(CNC(=O)c3ccc(OC)cc3)ccc21 | 755 s
O=C1COc2cc(S(=O)(=O)N3CCCC3C(=O)NC3CCCCCC3)c(Cl)cc2N1 (centres undefined) | 819 s
CN(C(=O)CSc1nc(-c2ccccc2)no1)c1ccc(F)cc1 | 1020 s
O=C(NCCNC(=O)c1ccc2c(c1)OCO2)c1ccc(NC(=O)C2CC2)cc1 | 650 s
Cc1ccc(-c2noc(-c3ccc(N4CCN(c5cc(C)ccc5C)CC4)nc3)n2)cc1 | 749 s
O=S(=O)(Nc1ccc(Cn2cncn2)cc1)c1ccccc1F | 688 s
O=C(Nc1cccc(Cl)c1)c1c(O)c2cccnc2n(-c2ccccc2)c1=O | 1340 s

Structure (SMILES) | RP-LC retention time
Cc1ccc(-c2cc3c(=O)n(Cc4noc(CN5CCCCCCC5)n4)ccn3n2)cc1 | 757 s
COc1cccc(-c2nc(C3CCN(S(=O)(=O)c4ccc5c(c4)CCC5)CC3)no2)c1 | 1220 s
CCN(CCCc1ccccc1)CCCc1ccccc1 | 874 s
CCOc1ccc(NC(=O)COc2cc(C(=O)OC)nc3ccc(OC)cc23)cc1 | 817 s
COc1ccc(-c2nc3cc(C)ccn3c2NC(=O)COc2ccccc2)cc1 | 694 s
COC(=O)c1nnn(-c2nonc2N)c1CN1CCN(c2ccccn2)CC1 | 578 s
CC(C)Oc1ccc(CNS(=O)(=O)c2cc(-c3nc(C(C)(C)C)cs3)cs2)cc1 | 1320 s
Cc1ccc(Cn2cc(-c3ccncc3)cc2C(=O)N2CCN(C3CCCCC3)CC2)cc1 | 602 s
COc1ccc(-c2nnc(-c3ccccc3)o2)cc1S(=O)(=O)N1CCCCCC1 | 1070 s
COCC(C)(O)CNS(=O)(=O)c1ccc(F)cc1C (centres undefined) | 674 s
CC(C)(C)NC(=O)N1CCC2(CC1)CC(Cc1nc(-c3cnccn3)no1)CCO2 (centres undefined) | 720 s
Cc1cc(N2C=C(C(=O)N3CCCC3)S(=O)(=O)c3ccc(F)cc32)ccc1F | 854 s
Cn1cc(C(=O)NCc2nc(-c3ccccc3)no2)nn1 | 661 s
COc1ccc(-c2cc(C(F)(F)F)n3nc(C(=O)O)cc3n2)cc1 | 851 s
CCc1nnc([C@@H]2CC(F)(F)CN2C(=O)Cn2nc(C)cc2C)o1 | 612 s
Cc1nnc(-c2ccc3ccn(CC(=O)NCc4ccc(F)cc4)c3c2)o1 | 760 s
Cc1ccc(-c2noc(Cn3cnc4c(cnn4-c4ccc(Br)cc4)c3=O)n2)cc1 | 1250 s
CCc1nn2c(CNS(=O)(=O)c3ccc(C)cc3C)c(-c3ccccc3)nc2s1 | 1020 s
CCc1cc(=O)n(CC(=O)Nc2cc(F)ccc2C)c(N2CCOCC2)n1 | 776 s
CCCn1cc(C(=O)NCCCOCC)c(S(=O)(=O)N2CCN(c3ccccc3Cl)CC2)n1 | 1090 s
Cc1ccc(-c2nc3cnccn3c2Nc2cccc(C(=O)O)c2)cc1 | 711 s
COc1ccccc1N(Cc1nc2nc(C)cc(C)n2n1)C(=O)c1ccco1 | 709 s
COc1cc(C2CC(=O)c3c([nH]c(C(=O)OC4CCCCC4)c3C)C2)cc(OC)c1OC (centres undefined) | 1090 s

Structure (SMILES) | RP-LC retention time
CN(C)S(=O)(=O)c1ccc(-c2nnc(C(=O)NCCN3CCc4ccccc4C3)o2)cc1 | 642 s
CC1=C(c2ccccc2)S(=O)(=O)N=C1N1CCCN(C(=O)CC(C)(C)C)CC1 | 854 s
COCCN1CC2(CCN(S(=O)(=O)c3cc(C)c(C)cc3C)CC2)C1c1ccncc1 (centres undefined) | 672 s
Cc1cc(C(=O)N2CCCC2c2nncn2C(C)C)n[nH]1 (centres undefined) | 579 s
COc1ccc(-c2nc(CCS(=O)(=O)c3ccc(C)cc3)no2)cc1OC | 904 s
CCN1C(=O)C(C)(C(=O)NCc2cccc(C)c2)Oc2cccnc21 (centres undefined) | 744 s
Cc1noc(C2(NS(=O)(=O)c3ccc(C#N)cc3)CCCCC2)n1 | 773 s
O=C(Cn1cnc(-c2nc(-c3ccccc3)cs2)c1)Nc1ccc(F)cc1F | 744 s
O=C(Cc1cccs1)Nc1nnc(SCc2nnc(-c3ccc4c(c3)OCO4)o2)s1 | 814 s
O=C(c1ccsc1)N1CCN(c2nnc3ccc(Cl)cn23)CC1 | 615 s
O=C(CCc1nnn2c1CN(C(=O)Cc1c[nH]c3ccccc13)CC2)N1CCCC1 | 641 s
O=C(Cn1nc2c(N3CCSCC3)nccn2c1=O)NCCc1ccc(Cl)cc1 | 850 s
CC(C)c1nn2c(S(=O)(=O)NCc3cccs3)c(C(C)C)nc2s1 | 966 s
O=C(NCc1ccc(F)cc1)N1CCN(c2nc3cccnc3n(Cc3ccccc3)c2=O)CC1 | 1020 s
Cc1ccccc1CNC(=O)C1CCN(CCc2cn(C)c3ncccc23)CC1 | 608 s
CCOC(=O)c1noc2ncnc(NCCc3ccc(Cl)cc3)c12 | 1110 s
COC(=O)c1ccc(NC(=O)N2CCCC2c2ccc(F)cc2)cc1 (centres undefined) | 919 s
O=C(NC1CCN(Cc2ccccc2)CC1)C1CCCN(c2ncc(-c3ccccc3)cn2)C1 (centres undefined) | 720 s
O=C(NC1CCCCCC1)C1CCN(S(=O)(=O)c2ccc(-c3noc(C4CC4)n3)cc2)CC1 | 836 s
COc1cccc(C2CC(c3ccc(F)cc3)=NC3(CCN(C(C)=O)CC3)N2)c1O (centres undefined) | 656 s
